Where “and” joins values, the source holds several entries; their conditions need not be identical. Identical values can stand only once. Toxic doses and inconclusive results are not listed.
Tested on: CAF1 mice, leiomyosarcoma No.2 ip, survival T/C%
Test: NCI In Vivo Anticancer Drug Screen. Data for tumor model Leiomyosarcoma (No. 2) (intraperitoneal) in CAF1 mice
Conditions: endpoint: mean survival time, higher = longer survival
Method: The antitumor activity of compounds was measured in mice bearing transplantable tumors. Survival or tumor size were measured and the results are expressed as the measurement made in the treated group (T) divided by the measurement made in the vehicle treated control group (C). The tumor model used in this assay is Leiomyosarcoma (No. 2) (intraperitoneal) in CAF1 mice

[1] = dose: 12.5 mg/kg/injection, schedule: Q01DX010 (sc), vehicle: steriod suspending solution
[2] = dose: 25.0 mg/kg/injection, schedule: Q01DX010 (sc), vehicle: steriod suspending solution
[3] = dose: 50.0 mg/kg/injection, schedule: Q01DX010 (sc), vehicle: steriod suspending solution
[4] = dose: 100.0 mg/kg/injection, schedule: Q01DX010 (sc), vehicle: steriod suspending solution
[5] = dose: 2.5 mg/kg/injection, schedule: Q01DX010 (ip), vehicle: saline
[6] = dose: 5.0 mg/kg/injection, schedule: Q01DX010 (ip), vehicle: saline
[7] = dose: 10.0 mg/kg/injection, schedule: Q01DX010 (ip), vehicle: saline
[8] = dose: 20.0 mg/kg/injection, schedule: Q01DX010 (ip), vehicle: saline
[9] = dose: 25.0 mg/kg/injection, schedule: Q01DX010 (ip), vehicle: saline
[10] = dose: 50.0 mg/kg/injection, schedule: Q01DX010 (ip), vehicle: saline
[11] = dose: 100.0 mg/kg/injection, schedule: Q01DX010 (ip), vehicle: saline
[12] = dose: 200.0 mg/kg/injection, schedule: Q01DX010 (ip), vehicle: saline
[13] = dose: 31.3 mg/kg/injection, schedule: Q01DX010 (ip), vehicle: saline
[14] = dose: 62.5 mg/kg/injection, schedule: Q01DX010 (ip), vehicle: saline
[15] = dose: 125.0 mg/kg/injection, schedule: Q01DX010 (ip), vehicle: saline
[16] = dose: 12.5 mg/kg/injection, schedule: Q01DX010 (ip), vehicle: saline
[17] = dose: 4.0 mg/kg/injection, schedule: Q01DX010 (ip), vehicle: saline
[18] = dose: 8.0 mg/kg/injection, schedule: Q01DX010 (ip), vehicle: saline
[19] = dose: 16.0 mg/kg/injection, schedule: Q01DX010 (ip), vehicle: saline
[20] = dose: 40.0 mg/kg/injection, schedule: Q01DX010 (ip), vehicle: saline
[21] = dose: 6.25 mg/kg/injection, schedule: Q01DX010 (ip), vehicle: saline
[22] = dose: 250.0 mg/kg/injection, schedule: Q01DX010 (ip), vehicle: saline

CC/C(=C(/CC)c1ccc(O)cc1)c1ccc(O)cc1 was tested, and the T/C [1] was 91 % of control and 96 % of control, the T/C [2] was 96 % of control and 100 % of control and the T/C [3] was 91 % of control and 92 % of control. For the same molecule, the T/C [4] was 91 % of control and 100 % of control.
In the case of NC(Cc1ccc(N(CCCl)CCCl)cc1)C(=O)O (stereo not drawn), the T/C [5] is reported as 191 % of control and 265 % of control, the T/C [6] is reported as 166 % of control and 207 % of control and the T/C [7] is reported as 150 % of control and 258 % of control. The T/C [8] was 192 % of control.
With CN(C)/N=N/c1nc[nH]c1C(N)=O the T/C [9] was 109 % of control, the T/C [10] was 109 % of control and 113 % of control and the T/C [11] was 118 % of control. The T/C [12] was 163 % of control and the T/C (dose: 400.0 mg/kg/injection, schedule: Q01DX010 (ip), vehicle: saline) was 86 % of control.
CCn1cnc2c(=S)nc[nH]c21 was tested, and the T/C (dose: 15.6 mg/kg/injection, schedule: Q01DX010 (ip), vehicle: saline) was 100 % of control and 108 % of control, the T/C [13] was 96 % of control and 100 % of control and the T/C [14] was 100 % of control and 119 % of control. The T/C [15] was 112 % of control.
For COS(C)(=O)=O, the T/C [16] was 108 % of control, the T/C [9] was 108 % of control and the T/C [10] was 112 % of control.
With CSc1ncnc2nc[nH]c12 the T/C [9] was 100 % of control and 109 % of control, the T/C [10] was 104 % of control and 109 % of control and the T/C [11] was 104 % of control and 113 % of control. The T/C [12] was 100 % of control.
In the case of CN1CC[C@]23c4c5ccc(O)c4O[C@H]2C(=O)CC[C@H]3[C@H]1C5, the T/C [17] is reported as 96 % of control, the T/C [18] is reported as 92 % of control and the T/C [19] is reported as 104 % of control. For the same molecule, the T/C (dose: 32.0 mg/kg/injection, schedule: Q01DX010 (ip), vehicle: saline) was 92 % of control.
For Cn1c(N)nc2nc[nH]c2c1=S, the T/C [7] was 100 % of control, the T/C [8] was 120 % of control and the T/C [20] was 104 % of control. For the same molecule, the T/C (dose: 80.0 mg/kg/injection, schedule: Q01DX010 (ip), vehicle: saline) was 108 % of control.
With C=C1C[C@H]2[C@@H]3C=C(C)C4=CC(=O)CC[C@]4(C)[C@H]3CC[C@]2(C)[C@@]1(OC(C)=O)C(C)=O the T/C (dose: 62.5 mg/kg/injection, schedule: Q01DX010 (sc), vehicle: steriod suspending solution) was 113 % of control, the T/C (dose: 125.0 mg/kg/injection, schedule: Q01DX010 (sc), vehicle: steriod suspending solution) was 102 % of control and the T/C (dose: 250.0 mg/kg/injection, schedule: Q01DX010 (sc), vehicle: steriod suspending solution) was 89 % of control. For the same molecule, the T/C (dose: 500.0 mg/kg/injection, schedule: Q01DX010 (sc), vehicle: steriod suspending solution) was 94 % of control.
In the case of N=[N+]=CC(=O)OCC(N)C(=O)O (stereo not drawn), the T/C (dose: 3.13 mg/kg/injection, schedule: Q01DX010 (ip), vehicle: saline) is reported as 96 % of control, the T/C [21] is reported as 104 % of control and the T/C [9] is reported as 96 % of control.
O=c1c(O)cccc2cc(O)c(O)c(O)c12 was tested, and the T/C [9] was 88 % of control and the T/C [10] was 102 % of control.
For CCCSc1ncnc2nc[nH]c12, the T/C [13] was 189 % of control and 233 % of control, the T/C [15] was 103 % of control and 117 % of control and the T/C [22] was 103 % of control.
For CCCNc1ncnc2[nH]ncc12, the T/C [21] was 114 % of control and the T/C [16] was 88 % of control and 90 % of control.
Nc1nc(N)c2nc(CNc3ccc(C(=O)NC(CCC(=O)O)C(=O)O)cc3)cnc2n1 (stereo not drawn) was tested, and the T/C (dose: 0.03 mg/kg/injection, schedule: Q01DX010 (ip), vehicle: other) was 103 % of control and 110 % of control, the T/C (dose: 0.05 mg/kg/injection, schedule: Q01DX010 (ip), vehicle: other) was 106 % of control and the T/C (dose: 0.1 mg/kg/injection, schedule: Q01DX010 (ip), vehicle: other) was 106 % of control and 107 % of control. For the same molecule, the T/C (dose: 0.2 mg/kg/injection, schedule: Q01DX010 (ip), vehicle: other) was 110 % of control.
For CC(=O)N(C)C, the T/C [14] was 90 % of control and the T/C [22] was 96 % of control.
In the case of Clc1ncnc2nc[nH]c12, the T/C (dose: 7.5 mg/kg/injection, schedule: Q01DX010 (ip), vehicle: saline) is reported as 86 % of control and 107 % of control, the T/C (dose: 15.0 mg/kg/injection, schedule: Q01DX010 (ip), vehicle: saline) is reported as 93 % of control and 103 % of control and the T/C (dose: 30.0 mg/kg/injection, schedule: Q01DX010 (ip), vehicle: saline) is reported as 111 % of control and 116 % of control. For the same molecule, the T/C (dose: 60.0 mg/kg/injection, schedule: Q01DX010 (ip), vehicle: saline) was 107 % of control.
With C[C@]12C=CC(=O)C=C1CC[C@@H]1[C@@H]2[C@@H](O)C[C@@]2(C)[C@H]1CC[C@]2(O)C(=O)CO the T/C [1] was 86 % of control and 107 % of control, the T/C [2] was 92 % of control and 93 % of control and the T/C [3] was 100 % of control and 107 % of control.
In the case of CCCCOP(=S)(N1CC1)N1CC1, the T/C [17] is reported as 165 % of control, the T/C [18] is reported as 223 % of control and the T/C [19] is reported as 250 % of control.
Cc1cc(N(CCCl)CCCl)ccc1N=Nc1ccccc1C(=O)O was tested, and the T/C [7] was 150 % of control and 183 % of control, the T/C [8] was 175 % of control and the T/C [20] was 104 % of control and 225 % of control.
For COc1ccc2c(c1OC)C(=O)O[C@@H]2[C@H]1c2c(cc3c(c2OC)OCO3)CCN1C, the T/C [13] was 92 % of control.
In the case of CC(=O)O[C@]1(C(C)=O)CC[C@H]2[C@@H]3C[C@H](C)C4=CC(=O)C=C[C@]4(C)[C@@]3(F)[C@@H](O)C[C@@]21C, the T/C [1] is reported as 96 % of control, the T/C [2] is reported as 104 % of control and the T/C [3] is reported as 88 % of control. For the same molecule, the T/C [4] was 88 % of control.
CS(=O)(=O)OCCN(CCOS(C)(=O)=O)c1ccc(N=O)cc1 was tested, and the T/C (dose: 0.25 mg/kg/injection, schedule: Q01DX010 (ip), vehicle: saline) was 221 % of control, the T/C (dose: 0.5 mg/kg/injection, schedule: Q01DX010 (ip), vehicle: saline) was 173 % of control and the T/C (dose: 1.0 mg/kg/injection, schedule: Q01DX010 (ip), vehicle: saline) was 113 % of control.
In the case of CS(=O)(=O)OCCC(=O)N1CCN(C(=O)CCOS(C)(=O)=O)CC1, the T/C [16] is reported as 172 % of control, the T/C [9] is reported as 224 % of control and the T/C [10] is reported as 232 % of control. The T/C [11] was 304 % of control.
In the case of CS(=O)(=O)OCCCl, the T/C (dose: 18.8 mg/kg/injection, schedule: Q01DX010 (ip), vehicle: saline) is reported as 100 % of control, the T/C (dose: 37.5 mg/kg/injection, schedule: Q01DX010 (ip), vehicle: saline) is reported as 111 % of control and the T/C (dose: 75.0 mg/kg/injection, schedule: Q01DX010 (ip), vehicle: saline) is reported as 116 % of control. For the same molecule, the T/C (dose: 150.0 mg/kg/injection, schedule: Q01DX010 (ip), vehicle: saline) was 220 % of control and 269 % of control.
For N=C(N)c1ccc(Nc2ccc(C(=N)N)cc2)cc1, the T/C (dose: 3.0 mg/kg/injection, schedule: Q01DX010 (ip), vehicle: saline) was 108 % of control, the T/C (dose: 6.0 mg/kg/injection, schedule: Q01DX010 (ip), vehicle: saline) was 104 % of control and the T/C (dose: 12.0 mg/kg/injection, schedule: Q01DX010 (ip), vehicle: saline) was 100 % of control.
For C[C@@H]1C[C@@H]([C@H](O)CC2CC(=O)NC(=O)C2)C(=O)[C@@H](C)C1, the T/C [6] was 100 % of control and 103 % of control, the T/C [7] was 110 % of control and 111 % of control and the T/C [8] was 116 % of control. For the same molecule, the T/C [20] was 163 % of control and 169 % of control.
For Oc1cc(CN(CCCl)CCCl)c(O)cc1CN(CCCl)CCCl, the T/C (dose: 0.31 mg/kg/injection, schedule: Q01DX010 (ip), vehicle: saline) was 162 % of control, the T/C (dose: 0.63 mg/kg/injection, schedule: Q01DX010 (ip), vehicle: saline) was 159 % of control and the T/C (dose: 1.25 mg/kg/injection, schedule: Q01DX010 (ip), vehicle: saline) was 159 % of control and 175 % of control and 184 % of control. The T/C [5] was 186 % of control and the T/C [6] was 118 % of control.

Source: PubChem BioAssay AID238 (DTP/NCI, 2004)
